Tests used:
[1] = tested on: PIAS3-K442 methylation in MKN45 and AGS cells; assay: Immunoblotting of PIAS3-K442 methylation in GC cell lines; assay type: cell-based; conditions: 20 µM or higher, 24-hour treatment
Description: (§1) Protein extraction from tissues or cells was performed by lysis buffer (20 mM Tris‐HCl (pH 7.5), 150 mM NaCl, 1 mM EDTA, 1 mM EGTA, 2.5 mM sodium pyrophosphate, 1 mM β‐glycerolphosphate, 1% Triton X‐100) supplemented with 1% phenylmethylsulfonyl fluoride (PMSF; Solarbio, P0100) and protease inhibitor cocktail (Apexbio, K1007) and lysed at 4 °C for 60 min, followed by centrifugation at 12000 g for 15 min at 4 °C. For Immunoblotting, the protein concentration was determined using the Pierce BCA Protein Assay Kit (Thermo Fisher Scientific, A55864). The protein samples were denatured by boiling in SDS‐PAGE loading buffer. For immunoprecipitation, antibodies were incubated with Dynabeads Protein G (Thermo, 10004D) at 4 °C for 4 h. The supernatant was then incubated with magnetic beads conjugated with antibodies or anti‐FLAG‐M2 magnetic beads (Sigma–Aldrich, M8823) at 4 °C overnight. Following incubation, the magnetic beads were washed three times with lysis buffer and then boiled in SDS‐PAGE loading buffer. The proteins were separated by sodium dodecyl sulfate polyacrylamide gel electrophoresis (SDS‐PAGE) with One‐Step PAGE Gel Fast Preparation Kit (Vazyme), and then transferred to the PVDF Membrane (Bio‐Rad). After blocking with a protein‐free rapid blocking buffer (Epizyme, PS108P) for 15 min, the membranes were incubated with primary antibodies at 4 °C overnight. […]

[2] = tested on: MITF ubiquitination mediated by PIAS3 and METTL10; assay: In vitro ubiquitination assay with purified Flag-MITF; assay type: biochemical; conditions: 20 µM
Description: For the in vitro Sumoylation assay, bacteria‐purified GST‐PIAS3 and HEK293T‐purified MITF were incubated with SAE1, UBC9 in reaction buffer according to the manufacturer's instructions at 37 °C for 2 h. For the in vitro ubiquitination assay, purified His‐METTL10, GST‐PIAS3, Flag‐MITF, SAE1, and UBC9 proteins were incubated with ubiquitin, UBE1, UBE2B, and RNF4 in reaction buffer according to the manufacturer's instructions at 37 °C for 2 h. All the samples were subjected to immunoprecipitation and subsequently boiled in SDS‐PAGE loading buffer for immunoblotting.

[3] = tested on: MITF ubiquitination in MKN45 and AGS cells; assay: Endogenous MITF ubiquitination and degradation in GC cells (IP and immunoblotting); assay type: cell-based; conditions: 20 µM, MG132 5 µM pretreatment
Description: as §1, with “buffer.” for “buffer. The proteins were separated by sodium dodecyl sulfate polyacrylamide gel electrophoresis (SDS‐PAGE) with One‐Step PAGE Gel Fast Preparation Kit (Vazyme), and then transferred to the PVDF Membrane (Bio‐Rad). After blocking with a protein‐free rapid blocking buffer (Epizyme, PS108P) for 15 min, the membranes were incubated with primary antibodies at 4 °C overnight.”
Plasmids were transfected into HEK293T cells for 24 h or into gastric cells for 36 h. […] After lysing the cells with lysis buffer, the samples were subjected to immunoprecipitation and analyzed by immunoblotting.

[4] = Acute toxicity, single intraperitoneal injection at escalating doses (LD50); conditions: ICR, mouse, in vivo, ip, ICR mice, 24 h survival
Description: For the acute toxic study, 8‐week‐old ICR mice (n = 6 per group) were administered a single intraperitoneal injection of LZQ‐02‐023‐01 at escalating doses. A vehicle‐treated group served as control. Survival was monitored continuously for 24 h postadministration. Additionally, another cohort of ICR mice (n = 5 per group) received a single intraperitoneal dose of LZQ‐02‐023‐01 at 125 mg/kg and were subsequently monitored daily for 7 days for clinical signs of toxicity, behavioral changes, body weight fluctuations, and mortality. At the conclusion of the observation period, animals were euthanized and subjected to a comprehensive gross necropsy. Major organs, including the liver, kidney, heart, lung, and spleen, were harvested for histopathological examination. For the chronic toxic study, 8‐week‐old ICR mice (n = 5 per group) received daily intraperitoneal injections of LZQ‐02‐023‐01 at a therapeutic dose of 40 mg/kg for 14 consecutive days. A vehicle‐treated group was included as a control. Throughout the treatment period, animals were monitored daily for clinical signs of toxicity and weighed every 2 days. At study termination, blood samples were collected for hematological and biochemical analyses. […]

[5] = tested on: gastric tumors of K19-C2mE mice; assay: K19-C2mE spontaneous gastric cancer mouse model; assay type: in vivo; conditions: 40 mg/kg/day i.p., 4 weeks
Description: For the subcutaneous tumor model, 5 × 10⁶ MKN45 cells suspended in 100 µL of sterile PBS were injected subcutaneously into the flanks of BALB/c nude mice. When tumor volumes reached approximately 50 mm^3, mice were randomized into three groups (Vehicle control, LZQ‐02‐023‐01 at 20 mg/kg or 40 mg/kg, n = 10 per group). All treatments were administered via intraperitoneal injection once daily for 14 consecutive days. Tumor volumes were measured every 2 days using calipers and calculated using the formula: volume = [length × (width[2])]/2. Mice were sacrificed on day 24 for endpoint analyses. For genetically engineered mouse models (GEMMs), 25‐week‐old K19‐C2mE mice were randomized into Vehicle control (n = 8) and LZQ‐02‐023‐01 treatment (40 mg/kg, n = 8) groups. Both groups received daily intraperitoneal injections for 28 consecutive days. Similarly, 8‐week‐old Cldn18‐AT mice were induced with tamoxifen (100 mg/kg, T5648, Sigma) and, 2 weeks post‐induction, randomized into Vehicle (n = 6) and LZQ‐02‐023‐01 (40 mg/kg, n = 6) treatment groups. Treatments were administered daily via intraperitoneal injection for 28 days.
Paraffin sections were initially placed in an oven at 65 °C for 30 min to melt the paraffin. The slides were then immersed in two consecutive xylene baths for 10 min each to dewax the tissue, followed by hydration through a series of graded ethanol solutions. […]

For `Cc1ccc(Nc2ncc3c(n2)N(C)C(=O)N(c2cccc(N)c2)C3)cn1` [LZQ-02-023-01, Three‐(3‐aminophenyl)‐1‐methyl‐7‐((6‐methylpyridin‐3‐yl)amino)‐3,4‐dihydropyrimido [4,5‐d] pyrimidin‐2 (1H)‐one], the “Methylation of PIAS3-K442 in GC cell lines” value [1] was “decreased”, the “PIAS3-mediated ubiquitination and degradation of MITF, cell-free system” value [2] was “significantly promoted” and the “PIAS3-mediated ubiquitination and degradation of MITF, GC cells” value [3] was “significantly promoted”. For the same compound, the LD50 at 24 h [4] was 213 mg/kg, the “Pathologic grade of lesions and proliferation (H&E, Ki-67)” value [5] was “lower pathologic grade lesions and proliferation” and the “Tumor burden and progression” value [5] was “significantly reduce tumor burden and progression”.

— publication PMC12752606, “METTL10‐Mediated PIAS3 Methylation Links Purine Metabolism to Gastric Cancer Progression” (Advanced Science, 2025)
